Assay results: patent publication US7399746B2, “Agents for wound healing” (McGill University, priority 2004, dated 2008)

Legend:
[1] = system: human skin keratinocytes; experiment: in vitro wound healing, monolayer of skin keratinocytes; type: cell-based; conditions: FIG. 1C
Method: (§1) Wound healing was measured using an art-established monolayer cell culture method (Nwomeh, et al. (1998) supra). Cells to be studied were plated in 48-well tissue culture plates at a cell density appropriate for obtaining confluent monolayers after one day in culture. Circular wounds were made in the center of the wells by placing a siliconized 200 μL tip into the well and lifting the cells from the plastic by applying suction. The successful creation of wounds was analysed using a phase contrast microscope. Cells were subsequently treated with control media or media containing the factors to be tested. The size of the wounds was immediately recorded for each well. The wounds were large enough to allow for a long-term incubation thereby improving the accuracy of the determinations. After one or two days in culture (depending on the cells studied), the size of the wounds was measured again. Wound dimensions were evaluated with a Leica MZFL11 stereo microscope. Computer images of the wounds were recorded with imaging software and contours of each wound before and after treatment were traced manually. Collections of contours for all wounds were converted to BMP files and quantitated using the Band-Leader program. The results were expressed as % reduction of wounds taking as 100% the reduction obtained in control cell cultures. No change corresponded to 0%, whereas complete closure corresponded to 100%. This system works well with close monitoring of cell densities. To prevent excess cell growth, the incubations were performed in serum-free medium supplemented with a single protein, transferrin (5 μg/mL). […] In these experiments, wound closure was being analysed, independent of the mechanism involved.
Cells analysed in the in vitro assay disclosed herein included monolayers of LLC-PK1 cells, a porcine kidney epithelial cell line used as an experimental system of wound healing for acute renal failure (Sponsel, et al. (1994) supra); monolayers of primary human skin fibroblasts; and monolayers of human skin keratinocytes. […]

[2] = system: LLC-PK1 cells, a porcine kidney epithelial cell line; experiment: in vitro wound healing, monolayer of kidney epithelial cells; type: cell-based; conditions: FIG. 1A
Method: as §1, with “The wounds were large enough to allow for a long-term incubation thereby improving the accuracy of the determinations.” left out, “cultures.” for “cultures. No change corresponded to 0%, whereas complete closure corresponded to 100%. This system works well with close monitoring of cell densities. To prevent excess cell growth, the incubations were performed in serum-free medium supplemented with a single protein, transferrin (5 μg/mL).”, “involved. […]” for “involved.”

[3] = system: primary human skin fibroblasts; experiment: in vitro wound healing, monolayer of skin fibroblasts; type: cell-based; conditions: FIG. 1B; for wound reduction: serum-free medium, two days
Method: Wound healing was measured using an art-established monolayer cell culture method (Nwomeh, et al. (1998) supra). Cells to be studied were plated in 48-well tissue culture plates at a cell density appropriate for obtaining confluent monolayers after one day in culture. Circular wounds were made in the center of the wells by placing a siliconized 200 μL tip into the well and lifting the cells from the plastic by applying suction. The successful creation of wounds was analysed using a phase contrast microscope. Cells were subsequently treated with control media or media containing the factors to be tested. The size of the wounds was immediately recorded for each well. The wounds were large enough to allow for a long-term incubation thereby improving the accuracy of the determinations. After one or two days in culture (depending on the cells studied), the size of the wounds was measured again. Wound dimensions were evaluated with a Leica MZFL11 stereo microscope. Computer images of the wounds were recorded with imaging software and contours of each wound before and after treatment were traced manually. Collections of contours for all wounds were converted to BMP files and quantitated using the Band-Leader program. The results were expressed as % reduction of wounds taking as 100% the reduction obtained in control cell cultures. No change corresponded to 0%, whereas complete closure corresponded to 100%. This system works well with close monitoring of cell densities. To prevent excess cell growth, the incubations were performed in serum-free medium supplemented with a single protein, transferrin (5 μg/mL). The absence of serum slowed down the healing process (one day in LLC-PK1 cells, two days in all other cultures), but reflected more accurately the situation likely to prevail in topical applications in vivo. Wound closure depends on the migration of cells at the sites of the wound and on cell proliferation. In these experiments, wound closure was being analysed, independent of the mechanism involved.
Cells analysed in the in vitro assay disclosed herein included monolayers of LLC-PK1 cells, a porcine kidney epithelial cell line used as an experimental system of wound healing for acute renal failure (Sponsel, et al. (1994) supra); monolayers of primary human skin fibroblasts; and monolayers of human skin keratinocytes. […] This made measurements of keratinocyte wound closure particularly difficult and time consuming. According, wound closure measurements of a cross created with two perpendicular cell lesions was particularly effective for analysing human skin keratinocytes (Sponsel, et al. (1994) supra).

[4] = system: human skin fibroblast cultures; experiment: cell proliferation, Alamar blue, skin fibroblasts; type: cell-based; conditions: two days, FIG. 2B
Method: (§2) The effects of IGF-API, API and C26 on cell proliferation were also evaluated using the art-established Alamar blue technique developed for hematopoietic cells or endothelial cells (DiFalco, et al. (1997) Biochem. J. 326:407-13; DiFalco & Congote (2002) Cytokine 18 (1):51-60; Sandoval, et al. (2002) supra). Five thousand cells per well were plated in 96-well plates and grown over night in complete cell culture medium. The cells were subsequently starved for one day in serum-free medium supplemented with 5 μg/mL bovine transferrin and 200 μg/mL fatty-acid free, tissue culture-tested, bovine serum albumin and incubated for two days in the presence of the API derivatives indicated. For experiments with the hepatoma cell line, Hep G2, only 3000 cells were plated per well.

[5] = system: human skin keratinocytes; experiment: cell proliferation, Alamar blue, keratinocytes; type: cell-based
Method: as §2
(§3) Cell proliferation with EGF and C26 was also analysed for keratinocytes and Hep G2 cells. The number of experiments using keratinocytes with EGF was five, and 10 to 11 with C26. The number of experiments using Hep G2 with EGF and C26 was five, except for 20 nM EGF (n=8, P<0.05, paired t-test) and for 20 μM C26 (n=21, p<0.001, paired t-test and Student-Newman-Keuls test). All other P values were according to the Student-Newman-Keul multiple comparisons test.

[6] = system: hepatoma cell line Hep G2; experiment: cell proliferation, Alamar blue, Hep G2; type: cell-based; conditions: Hep G2, 20 μM, FIG. 3B (n=21, p<0.001 for C26)
Method: as §2, §3

[7] = system: kidney epithelial cells; experiment: cell proliferation, Alamar blue, kidney epithelial cells; type: cell-based, porcine; conditions: two days, FIG. 2A
Method: as §2

Row | Substance | concentration with effect on wound reduction [1] [nM] | wound reduction [1] | concentration at which effective/active in wound reduction [2] [nM] | concentration with significant effect on wound reduction [3] [µM] | wound reduction [3] | cell proliferation [4] | cell proliferation compared to EGF ([5]; equivalent concentrations of EGF, FIG. 3A) | cell proliferation ([5]; two days, FIG. 2C) | cell proliferation [6] | cell proliferation [7]
1 | API: alpha-1 proteinase inhibitor, also known as alpha-1-antitrypsin, the major physiological inhibitor of neutrophil elastase | 8 | marginal, but significant effect | 0.16 | 0.02 | significant, but lower than the effects obtained with IGF-API | – | – | – | – | –
2 | C26: small peptide corresponding to the last 26 amino acids of API (SEQ ID NO:2) (PFVFLMIEQNTKSPLFMGKVVNPTQK) | – | no significant effect | 32 | 8 | significant, but lower than the effects obtained with IGF-API | marginally stimulated cell proliferation | higher than the effects of equivalent concentrations of epidermal growth factor | marginally stimulated cell proliferation | significantly increased cell proliferation | marginally stimulated cell proliferation
